These compounds were tested against T1, human Oxytocin (OTR) receptor (Homo sapiens, UniProt P30559) (assay: Calcium flux assay (FLIPR), agonist mode, CHO cells expressing human OTR). Details: calcium flux in CHO cells expressing human OTR, read-out: hEC50.
T1 construct: expressed in transfected cells
T1 sequence (P30559 1-389): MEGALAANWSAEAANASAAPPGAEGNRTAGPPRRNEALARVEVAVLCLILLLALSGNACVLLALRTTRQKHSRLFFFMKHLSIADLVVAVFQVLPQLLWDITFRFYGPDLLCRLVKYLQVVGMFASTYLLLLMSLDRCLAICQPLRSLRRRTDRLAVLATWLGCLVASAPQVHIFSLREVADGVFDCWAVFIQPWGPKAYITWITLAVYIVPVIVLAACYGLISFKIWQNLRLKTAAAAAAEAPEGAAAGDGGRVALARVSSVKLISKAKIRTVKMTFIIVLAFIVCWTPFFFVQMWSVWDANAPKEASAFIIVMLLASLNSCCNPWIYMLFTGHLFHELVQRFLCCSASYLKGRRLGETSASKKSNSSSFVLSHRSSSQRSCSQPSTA
Format: cell-based
Excerpt: Chinese Hamster Ovary (CHO) cells were transfected with expression plasmids encoding either the human V1a, the human Oxytocin (OTR) or the humanV2 receptor, the latter in combination with the chimeric Gqs5 G protein to redirect the signal to Calcium flux. Stable cells were cloned by limiting dilution to yield monoclonal cell lines expressing either human V1a, human V2+Gqs5 or human OTR receptors and selected based on functional responses detected on a fluorometric imaging plate reader (FLIPR) detecting Calcium flux in the cell after receptor activation. The stable cell lines were grown in F-12 K Nutrient Mixture (Kaighns Modification), containing 10% foetal bovine serum (FBS), 1% penicillin-streptomycin, 1% L-[…], 200 ug/ml Geneticin at 37° C. in a 10% CO2 incubator at 95% humidity.
Calcium Flux Assays Using Fluorescent Imaging (Fluorometric Imaging Plate Reader, FLIPR)
On the afternoon before the assay, cells were plated at a density of 50,000 cells/well into black 96 well plates with clear bottoms to allow cell inspection and fluorescence measurements from the bottom of each well. The density of cells was sufficient to yield a confluent monolayer the next day. Hanks balanced salt solution, without phenol red, containing 20 mM HEPES (pH 7.3) and 2.5 mM probenecid (assay buffer) was prepared fresh for each experiment. Compound dilutions were made using a Beckman Biomek 2000 laboratory automation workstation, in assay buffer containing 1% DMSO. The dye-loading buffer consisted of a final concentration of 2 μM Fluo-4-AM (dissolved in DMSO and pluronic acid) in assay buffer. The existing culture media was removed from the wells and 100 μl of the dye-loading buffer was added to each well and incubated for approximately 60 min at 37° C. in a 5% CO2 incubator at 95% humidity. Once dye-loaded, the cells were washed thoroughly on an Embla cell washer with the assay buffer to remove any unincorporated dye. Exactly 100 μl assay buffer was left in each well.
Each 96 well plate containing dye-loaded cells was placed into the FLIPR machine and the laser intensity set to a suitable level to detect low basal fluorescence. To test compounds as agonists, 25 μl diluted compound was added to the plate 10 seconds into the fluorescent measurements and fluorescent response was recorded for 5 minutes. The fluorescence data was normalized to the endogenous full agonist dose-response set at 100% for the maximum response and 0% for the minimum. Each agonist concentration-response curve was constructed using a four parameter logistic equation with Microsoft Excel XLFit as follows: Y=Minimum+((Maximum−Minimum)/(1+10^(LogEC50-X)nH)), where y is the % normalized fluorescence, minimum is the minimum y, maximum is the maximum y, log EC50 is the log10 concentration which produces 50% of the maximum induced fluorescence, x is the log10 of the concentration of the agonist compound and H is the slope of the curve (the Hill Coefficient). The maximum value gives the efficacy of the agonist test compound in percentage. The concentration of agonist that produced a half-maximal response is represented by the EC50 value, the logarithm of which yielded the pEC50 value.
In the case of `O=S(=O)(Nc1ccnn1-c1ccccn1)c1ccc(C(F)(F)F)c(F)c1` [Example 24, 3-Fluoro-N-(2-pyridin-2-yl-2H-pyrazol-3-yl)-4-trifluoromethyl-benzenesulfonamide], the EC50 is reported as 0.799 µM.
For `CCc1ccc(S(=O)(=O)Nc2ccnn2-c2ccccn2)cc1` [Example 3, 4-Ethyl-N-(2-pyridin-2-yl-2H-pyrazol-3-yl)-benzenesulfonamide], the EC50 was 0.016 µM.
`O=S(=O)(Nc1ccnn1-c1ccccn1)c1ccc(Cl)cc1Cl` [Example 13, 2,4-Dichloro-N-(2-pyridin-2-yl-2H-pyrazol-3-yl)-benzenesulfonamide] gave an EC50 of 0.017 µM.
`N#Cc1ccc(S(=O)(=O)Nc2ccnn2-c2ccccn2)cc1` [Example 8, 4-Cyano-N-(2-pyridin-2-yl-2H-pyrazol-3-yl)-benzenesulfonamide] was tested, and the EC50 was 0.081 µM.
For `O=S(=O)(Nc1ccnn1-c1ncccn1)c1ccc(C(F)(F)F)cc1` [Example 12, N-(2-Pyrimidin-2-yl-2H-pyrazol-3-yl)-4-trifluoromethyl-benzenesulfonamide], the EC50 was 1.8 µM.
`Cc1csc(-n2nccc2NS(=O)(=O)c2ccc(Cl)cc2)n1` [Example 10, 4-Chloro-N-[2-(4-methyl-thiazol-2-yl)-2H-pyrazol-3-yl]-benzenesulfonamide] gave an EC50 of 0.163 µM.
`O=S(=O)(Nc1ccnn1-c1ccccn1)c1ccc(C(F)(F)F)cc1` [Example 2, N-(2-Pyridin-2-yl-2H-pyrazol-3-yl)-4-trifluoromethyl-benzenesulfonamide] gave an EC50 of 0.008 µM.
In the case of `CCc1ccc(S(=O)(=O)Nc2ccnn2-c2cc(C)ccn2)cc1` [Example 18, 4-Ethyl-N-[2-(4-methyl-pyridin-2-yl)-2H-pyrazol-3-yl]-benzenesulfonamide], the EC50 is reported as 0.02 µM.
With `O=S(=O)(Nc1ccnn1-c1ccccn1)c1ccc(SC(F)(F)F)cc1` [Example 20, N-(2-Pyridin-2-yl-2H-pyrazol-3-yl)-4-trifluoromethylsulfanyl-benzenesulfonamide] the EC50 was 0.047 µM.
`CCc1ccc(S(=O)(=O)Nc2ccnn2-c2nc(C)cs2)cc1` [Example 11, 4-Ethyl-N-[2-(4-methyl-thiazol-2-yl)-2H-pyrazol-3-yl]-benzenesulfonamide] gave an EC50 of 0.113 µM.
With `O=S(=O)(Nc1ccnn1-c1ccccn1)c1ccc(C(F)(F)F)cc1F` [Example 22, 2-Fluoro-N-(2-pyridin-2-yl-2H-pyrazol-3-yl)-4-trifluoromethyl-benzenesulfonamide] the EC50 was 0.333 µM.
Compound `O=S(=O)(Nc1ccnn1-c1ccccn1)c1ccc(Cl)cc1` [Example 1, 4-Chloro-N-(2-pyridin-2-yl-2H-pyrazol-3-yl)-benzenesulfonamide] has an EC50 of 0.019 µM.
`Cc1ccnc(-n2nccc2NS(=O)(=O)c2ccc(Cl)cc2)c1` [Example 17, 4-Chloro-N-[2-(4-methyl-pyridin-2-yl)-2H-pyrazol-3-yl]-benzenesulfonamide] was tested, and the EC50 was 0.016 µM.
`Cc1csc(-n2nccc2NS(=O)(=O)c2ccc(Cl)cc2F)n1` [Example 26, 4-Chloro-2-fluoro-N-[2-(4-methyl-thiazol-2-yl)-2H-pyrazol-3-yl]-benzenesulfonamide] was tested, and the EC50 was 0.15 µM.
Work on `CCc1ccc(S(=O)(=O)Nc2ccnn2-c2nc(C3CC3)ns2)cc1` [Example 25, N-[2-(3-Cyclopropyl-[1,2,4]thiadiazol-5-yl)-2H-pyrazol-3-yl]-4-ethyl-benzenesulfonamide] yielded an EC50 of 1.57 µM.
For `Cc1csc(-n2nccc2NS(=O)(=O)c2ccc(C(F)(F)F)cc2)n1` [Example 9, N-[2-(4-Methyl-thiazol-2-yl)-2H-pyrazol-3-yl]-4-trifluoromethyl-benzenesulfonamide], the EC50 was 0.52 µM.
In the case of `CC(F)c1ccc(S(=O)(=O)Nc2ccnn2-c2ccccn2)cc1` (stereo not shown) [Example 15, 4-(1-Fluoro-ethyl)-N-(2-pyridin-2-yl-2H-pyrazol-3-yl)-benzenesulfonamide], the EC50 is reported as 0.084 µM.
For `O=S(=O)(Nc1ccnn1-c1ccc(F)cc1)c1ccc(Cl)cc1` [Example 7, 4-Chloro-N-[2-(4-fluoro-phenyl)-2H-pyrazol-3-yl]-benzenesulfonamide], the EC50 was 2.46 µM.
Compound `CCCc1ccc(S(=O)(=O)Nc2ccnn2-c2ccccn2)cc1` [Example 4, 4-Propyl-N-(2-pyridin-2-yl-2H-pyrazol-3-yl)-benzenesulfonamide] has an EC50 of 0.034 µM.
In the case of `O=S(=O)(Nc1ccnn1-c1ccccn1)c1ccc(OC(F)F)cc1` [Example 6, 4-Difluoromethoxy-N-(2-pyridin-2-yl-2H-pyrazol-3-yl)-benzenesulfonamide], the EC50 is reported as 0.107 µM.
In the case of `O=S(=O)(Nc1ccnn1-c1ccccn1)c1ccc(S(=O)(=O)C(F)(F)F)cc1` [Example 23, N-(2-Pyridin-2-yl-2H-pyrazol-3-yl)-4-trifluoromethanesulfonyl-benzenesulfonamide], the EC50 is reported as 0.753 µM.
Work on `O=S(=O)(Nc1ccnn1-c1ccccn1)c1ccc(C(F)(F)F)cc1Cl` [Example 5, 2-Chloro-N-(2-pyridin-2-yl-2H-pyrazol-3-yl)-4-trifluoromethyl-benzenesulfonamide] yielded an EC50 of 0.091 µM.
With `O=S(=O)(Nc1ccnn1-c1ccnc(C(F)(F)F)n1)c1ccc(C(F)(F)F)cc1` [Example 21, 4-Trifluoromethyl-N-[2-(2-trifluoromethyl-pyrimidin-4-yl)-2H-pyrazol-3-yl]-benzenesulfonamide] the EC50 was 1.57 µM.
Work on `Cc1ccnc(-n2nccc2NS(=O)(=O)c2ccc(C(F)(F)F)cc2)c1` [Example 16, N-[2-(4-Methyl-pyridin-2-yl)-2H-pyrazol-3-yl]-4-trifluoromethyl-benzenesulfonamide] yielded an EC50 of 0.017 µM.
`Cc1ccnc(-n2nccc2NS(=O)(=O)c2ccc(C#N)cc2)c1` [Example 19, 4-Cyano-N-[2-(4-methyl-pyridin-2-yl)-2H-pyrazol-3-yl]-benzenesulfonamide] was tested, and the EC50 was 0.063 µM.

From patent US9751870B2, “Oxytocin receptor agonists for the treatment of CNS diseases” (Hoffmann-La Roche Inc., priority 2013, dated 2017)
